Legend:
[1] = target: PLK4 (h) (Homo sapiens, UniProt O00444); assay: PLK-4 human kinase inhibition, scintillation proximity assay (SPA); assay type: biochemical; details: read-out: PLK4 pIC50 (converted)
[2] = target: CDK1/CyclinB (h) (Homo sapiens, UniProt P06493); assay: CDK1/CyclinB human kinase inhibition, Invitrogen's FRET assay (Z'lyte); assay type: biochemical; details: read-out: CDK1 pIC50 (converted)
Summary of the method: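 Read-out is the 460 nm/538 nm emission ratio (390 nm excitation) after a 60 min protease development step. Before that, 10 μM ATP and 2 μM Z'lyte Ser/Thr peptide 12 react 60 min at room temperature with 0.2 μg/ml human CDK1/CyclinB in Hepes pH 7.5 containing MgCl2, EGTA and Brij-35.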

[3] = target: PLK1 T210D (h) (Homo sapiens, UniProt P53350, T210D); assay: PLK1 human kinase inhibition, SPA; assay type: biochemical; details: read-out: PLK1 pIC50 (converted)
Sequence of PLK1 T210D (h) (P53350 whole entry T210D): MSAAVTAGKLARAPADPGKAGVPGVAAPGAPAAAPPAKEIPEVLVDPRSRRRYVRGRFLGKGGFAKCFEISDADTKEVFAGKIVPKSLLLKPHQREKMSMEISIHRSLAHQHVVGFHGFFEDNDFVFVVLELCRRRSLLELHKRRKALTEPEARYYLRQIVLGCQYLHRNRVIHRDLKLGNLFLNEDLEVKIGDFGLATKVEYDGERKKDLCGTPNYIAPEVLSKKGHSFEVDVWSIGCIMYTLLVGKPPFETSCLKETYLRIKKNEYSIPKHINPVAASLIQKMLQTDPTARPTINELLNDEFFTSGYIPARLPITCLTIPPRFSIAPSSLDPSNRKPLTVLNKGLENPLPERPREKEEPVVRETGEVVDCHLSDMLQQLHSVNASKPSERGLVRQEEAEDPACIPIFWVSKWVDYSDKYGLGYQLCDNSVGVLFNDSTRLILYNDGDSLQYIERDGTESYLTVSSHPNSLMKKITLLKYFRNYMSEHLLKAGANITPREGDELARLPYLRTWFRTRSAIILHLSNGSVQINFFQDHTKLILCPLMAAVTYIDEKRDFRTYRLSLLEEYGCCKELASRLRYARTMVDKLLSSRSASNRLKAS
Summary of the method: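 Kinase incubated 40 min at room temperature with 0.1 μM ATP (2 nM [γ-33P]ATP tracer), 2 μM biotinylated peptide, pH 8.0 Hepes buffer with 2 mM MnCl2 and 1 mM DTT; enzyme at 0.125 ng/ml. Stopped with EDTA; 33P-peptide bound to streptavidin scintillant beads and imaged.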

[4] = target: PLK2 (h) (Homo sapiens, UniProt Q9NYY3); assay: PLK2 human kinase inhibition, SPA; assay type: biochemical; details: read-out: PLK2 pIC50 (converted)
Sequence of PLK2 (h) (Q9NYY3 whole entry): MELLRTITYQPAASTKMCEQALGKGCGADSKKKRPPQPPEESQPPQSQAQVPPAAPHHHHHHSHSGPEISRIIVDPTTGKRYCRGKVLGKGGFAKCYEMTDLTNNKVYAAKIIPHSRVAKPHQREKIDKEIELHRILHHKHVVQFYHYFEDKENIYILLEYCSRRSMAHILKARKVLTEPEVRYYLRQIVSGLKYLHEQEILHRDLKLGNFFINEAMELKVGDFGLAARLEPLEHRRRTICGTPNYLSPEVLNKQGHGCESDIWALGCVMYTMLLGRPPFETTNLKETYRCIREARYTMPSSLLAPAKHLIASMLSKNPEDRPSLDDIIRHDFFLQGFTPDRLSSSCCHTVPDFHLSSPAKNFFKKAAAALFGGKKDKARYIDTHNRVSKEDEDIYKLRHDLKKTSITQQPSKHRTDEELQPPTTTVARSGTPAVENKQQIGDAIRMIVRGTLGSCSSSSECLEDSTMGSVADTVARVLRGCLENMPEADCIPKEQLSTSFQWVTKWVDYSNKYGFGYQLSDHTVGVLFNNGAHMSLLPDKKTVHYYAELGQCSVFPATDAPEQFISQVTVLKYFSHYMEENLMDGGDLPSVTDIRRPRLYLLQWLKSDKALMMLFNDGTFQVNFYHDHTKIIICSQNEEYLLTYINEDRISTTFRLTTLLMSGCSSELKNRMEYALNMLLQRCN
Summary of the method: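 33P incorporation into a biotinylated peptide (2 μM) was captured on streptavidin PVT beads and imaged on Leadseeker. Enzyme at 30 μg/ml, ATP 0.1 μM with 2 nM [γ-33P]ATP, Hepes pH 8.0 with MnCl2 and DTT. Incubation was 20 min at room temperature.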

[5] = target: PLK3 (h) (Homo sapiens, UniProt Q9H4B4); assay: PLK3 human kinase inhibition, SPA; assay type: biochemical; details: read-out: PLK3 pIC50 (converted)
Sequence of PLK3 (h) (Q9H4B4 whole entry): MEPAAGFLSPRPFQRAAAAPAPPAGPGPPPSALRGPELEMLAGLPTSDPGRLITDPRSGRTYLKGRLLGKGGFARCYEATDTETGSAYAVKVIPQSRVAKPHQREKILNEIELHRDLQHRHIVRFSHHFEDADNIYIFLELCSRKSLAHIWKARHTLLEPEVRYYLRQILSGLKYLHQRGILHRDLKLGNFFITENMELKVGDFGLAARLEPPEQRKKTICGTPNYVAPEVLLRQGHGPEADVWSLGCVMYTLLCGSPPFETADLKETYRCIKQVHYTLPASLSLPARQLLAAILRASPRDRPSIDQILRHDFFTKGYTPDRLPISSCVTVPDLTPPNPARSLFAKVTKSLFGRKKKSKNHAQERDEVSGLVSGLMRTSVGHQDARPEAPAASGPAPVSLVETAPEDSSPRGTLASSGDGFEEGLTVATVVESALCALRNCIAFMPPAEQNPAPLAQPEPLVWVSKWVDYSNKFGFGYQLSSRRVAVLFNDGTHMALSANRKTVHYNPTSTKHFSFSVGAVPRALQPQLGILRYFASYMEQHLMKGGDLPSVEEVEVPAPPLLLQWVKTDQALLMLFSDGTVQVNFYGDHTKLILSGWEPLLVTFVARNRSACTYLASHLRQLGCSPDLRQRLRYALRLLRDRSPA
Summary of the method: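 Radiometric scintillation proximity format at pH 8.0 (Hepes, MnCl2, DTT). The 2 μM biotin-peptide substrate is phosphorylated by PLK3 (h) (30 μg/ml) using 0.1 μM ATP traced with 33P, for 20 min at room temperature. EDTA stop; phosphopeptide captured on streptavidin beads and imaged.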

[6] = system: H1299; assay: Cellular proliferation assay (Alamar blue), H1299; assay type: cell-based; details: Homo sapiens, NCI-H1299; 10% FCS; 72 hours with compound; Alamar blue 4 h
Summary of the method: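 This proliferation assay on NCI-H1299 cells used an initial 24-hour compound-free incubation after seeding, followed by 72 hours of compound treatment with 10% FCS serum at 37° C. and 5% (v/v) CO2. Viable cells were quantified by a 4 h Alamar blue incubation and fluorescent plate reading at 544 nm/590 nm, and effects were expressed relative to control cells.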

[7] = system: U87-MG; assay: Cellular proliferation assay (Alamar blue), U87-MG; assay type: cell-based; details: Homo sapiens, U-87 MG; 10% FCS; 72 hours with compound; Alamar blue 6 h; read-out: U87-MG (cellular proliferation assay, Table 4) (converted)
Summary of the method: (§1)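 After a 24 h compound-free attachment period, cells in 10% FCS medium are treated for 72 h at 37° C. Resazurin conversion is then quantified by fluorescence, with dye incubation lasting 4 h for HCT-116, 6 h for U87-MG and 24 h for A2780 or MDA-MB-231.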

[8] = system: A2780; assay: Cellular proliferation assay (Alamar blue), A2780; assay type: cell-based; details: Homo sapiens, 10% FCS, 72 hours with compound, Alamar blue 24 h, read-out: A2780 (cellular proliferation assay, Table 4) (converted)
Summary of the method: as §1

[9] = system: MDA-MB-231; assay: Cellular proliferation assay (Alamar blue), MDA-MB-231; assay type: cell-based; details: Homo sapiens, 10% FCS, 72 hours with compound, Alamar blue 24 h, read-out: MDA/MB231 (cellular proliferation assay, Table 4) (converted)
Summary of the method: as §1

Sequence of PLK4 (h) (O00444 whole entry): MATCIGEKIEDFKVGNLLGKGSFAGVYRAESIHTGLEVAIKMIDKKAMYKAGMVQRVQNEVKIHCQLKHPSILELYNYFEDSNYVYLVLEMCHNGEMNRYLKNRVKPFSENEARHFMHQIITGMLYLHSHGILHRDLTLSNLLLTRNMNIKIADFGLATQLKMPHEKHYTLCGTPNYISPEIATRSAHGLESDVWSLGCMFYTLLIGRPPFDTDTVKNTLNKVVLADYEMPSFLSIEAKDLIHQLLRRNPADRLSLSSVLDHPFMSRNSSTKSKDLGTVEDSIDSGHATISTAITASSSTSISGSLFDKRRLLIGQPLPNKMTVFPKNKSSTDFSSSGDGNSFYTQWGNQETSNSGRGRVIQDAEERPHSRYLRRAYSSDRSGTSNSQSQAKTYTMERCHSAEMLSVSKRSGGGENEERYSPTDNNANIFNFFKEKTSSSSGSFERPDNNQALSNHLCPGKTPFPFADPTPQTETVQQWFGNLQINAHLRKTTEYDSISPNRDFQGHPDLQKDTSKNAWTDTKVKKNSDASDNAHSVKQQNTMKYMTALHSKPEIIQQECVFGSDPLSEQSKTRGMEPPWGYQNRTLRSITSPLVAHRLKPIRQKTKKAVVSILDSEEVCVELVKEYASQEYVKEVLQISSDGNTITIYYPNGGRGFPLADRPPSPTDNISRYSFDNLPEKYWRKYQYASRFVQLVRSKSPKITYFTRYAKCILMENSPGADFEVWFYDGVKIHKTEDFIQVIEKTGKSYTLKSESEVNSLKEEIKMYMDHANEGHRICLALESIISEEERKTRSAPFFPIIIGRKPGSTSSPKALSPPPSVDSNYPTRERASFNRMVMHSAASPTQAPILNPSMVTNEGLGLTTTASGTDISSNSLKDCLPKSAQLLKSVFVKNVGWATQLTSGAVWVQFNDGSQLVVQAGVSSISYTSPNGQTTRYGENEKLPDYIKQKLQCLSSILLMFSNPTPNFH
Sequence of CDK1/CyclinB (h) (P06493 whole entry): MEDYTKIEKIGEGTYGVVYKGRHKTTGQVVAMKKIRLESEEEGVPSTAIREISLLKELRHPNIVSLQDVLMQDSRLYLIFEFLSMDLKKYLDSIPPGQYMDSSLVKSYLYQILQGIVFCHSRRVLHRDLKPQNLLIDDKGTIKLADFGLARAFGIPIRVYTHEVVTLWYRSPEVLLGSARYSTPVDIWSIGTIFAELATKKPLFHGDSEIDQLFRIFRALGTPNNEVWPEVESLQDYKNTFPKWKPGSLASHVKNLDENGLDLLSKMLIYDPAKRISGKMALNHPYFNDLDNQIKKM
Sequence of CDK1/CyclinB (h) (P14635 whole entry partner): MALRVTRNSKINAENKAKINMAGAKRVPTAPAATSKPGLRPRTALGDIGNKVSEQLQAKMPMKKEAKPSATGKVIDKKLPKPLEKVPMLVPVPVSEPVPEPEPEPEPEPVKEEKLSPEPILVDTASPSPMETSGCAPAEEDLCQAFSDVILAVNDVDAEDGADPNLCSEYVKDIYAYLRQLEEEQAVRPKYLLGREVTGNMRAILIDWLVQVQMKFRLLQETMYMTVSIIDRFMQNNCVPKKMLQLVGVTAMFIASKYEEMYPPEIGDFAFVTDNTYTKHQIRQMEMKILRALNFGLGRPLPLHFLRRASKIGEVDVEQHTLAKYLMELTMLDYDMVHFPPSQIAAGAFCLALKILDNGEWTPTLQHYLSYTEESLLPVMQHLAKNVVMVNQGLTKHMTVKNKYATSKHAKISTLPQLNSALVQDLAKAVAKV

SMILES | IC50 [1] | IC50 [2] | IC50 [3] | IC50 [4] | IC50 [5] | IC50 [6] | IC50 [7] | IC50 [8] | IC50 [9]
COc1ccc2cc1CN(C)CCNC(=O)[C@H](CO)NCc1cc(Br)cc(c1)Nc1nccc-2n1 [Compound 119] | 3.89 µM | > 10 µM | > 10 µM | > 10 µM | > 10 µM | > 10 µM | 8.71 µM | > 10 µM | > 10 µM
COc1cc2cc(c1)Nc1nccc(n1)-c1ccc(OC)c(c1)CN(C)CCCNC(=O)C1CCN(CC1)C2 [Compound 73] | 2.57 µM | > 10 µM | > 10 µM | > 10 µM | > 10 µM | > 10 µM | 5.13 µM | > 10 µM | > 10 µM
C[C@@H]1NCc2cc(ccc2N2CCOCC2)Nc2nccc(n2)-c2cccc(c2)CNC1=O [Compound 182] | 0.692 µM | 7.59 µM | > 10 µM | > 10 µM | > 10 µM | > 10 µM | > 10 µM | > 10 µM | > 10 µM
COc1cc2cc(c1)Nc1nccc(n1)-c1ccc(cc1)CN(C)CCNC(=O)C1CCN(CC1)C2 [Compound 62] | 0.871 µM | > 10 µM | > 10 µM | > 10 µM | 9.77 µM | > 10 µM | 6.92 µM | 5.89 µM | 9.12 µM
O=C1NCc2cccc(c2)-c2ccnc(n2)Nc2cccc(c2)CN2C[C@@H](O)C[C@@H]12 [Compound 45] | 0.417 µM | 0.0708 µM | > 10 µM | > 10 µM | > 10 µM | 1.17 µM | 0.912 µM | 1.66 µM | 6.76 µM
COc1cc2cc(c1)Nc1nccc(n1)-c1ccc(OC)c(c1)CN(C)CCNC(=O)CN1CCN(CC1)C2 [Compound 127] | 0.813 µM | > 10 µM | > 10 µM | > 10 µM | > 10 µM | > 10 µM | > 10 µM | > 10 µM | > 10 µM
CN(C)C(=O)c1cc2cc(c1)Nc1nccc(n1)-c1cccc(c1)CNC(=O)[C@@H]1CCCN1C2 [Compound 35] | 0.204 µM | 0.288 µM | > 10 µM | > 10 µM | > 10 µM | > 10 µM | 1.45 µM | 3.39 µM | > 10 µM
O=C1NCc2ccc(cc2)-c2ccnc(n2)Nc2ccc(N3CCOCC3)c(c2)CN2C[C@H](O)C[C@@H]12 [Compound 56] | ~10 µM | > 10 µM | > 10 µM | > 10 µM | > 10 µM | > 10 µM | > 10 µM | > 10 µM | > 10 µM
O=C1NCc2cccc(c2)-c2ccnc(n2)Nc2ccc(cc2)CN[C@H]1Cc1ccccc1 [Compound 192] | > 10 µM | > 10 µM | > 10 µM | > 10 µM | > 10 µM | > 10 µM | > 10 µM | > 10 µM | > 10 µM
CN(C)CCNC(=O)c1cc2cc(c1)Nc1nccc(n1)-c1cccc(c1)CNC(=O)[C@@H]1CCCN1C2 [Compound 39] | 0.282 µM | 1.45 µM | > 10 µM | > 10 µM | > 10 µM | > 10 µM | 1.07 µM | 2.09 µM | 6.76 µM
COc1cc2cc(c1)Nc1nccc(n1)-c1ccc(OC)c(c1)CN(C)CCCNC(=O)[C@@H]1CCCN1C2 [Compound 171] | 5.01 µM | > 10 µM | > 10 µM | > 10 µM | > 10 µM | > 10 µM | 6.17 µM | > 10 µM | > 10 µM

— US8609836B2, “4-aryl-2-anilino-pyrimidines” (Janssen Pharmaceutica NV, priority 2008, dated 2013)
